Molecular target: T1, human recombinant Yes [a.a. 2–543 (end)] (Homo sapiens, UniProt P07947)
T1 construct: human recombinant Yes [a.a; 2–543 (end)]; purchased BPS Bioscience 40488
Experiment: ADP-Glo kinase assay, inhibition rates of Yes phosphorylation activity (first and second screening)
Type: biochemical
Settings: 10 μmol L−1 compound; for First screening IR (inhibition rate): mean of n = 4 wells; for Second screening IR (inhibition rate): dissolved from fresh powder, n = 4
In short: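 ADP-Glo luminescence measured inhibition of human recombinant Yes (a.a. 2–543) phosphorylation activity. In the first screen, each compound ran in 4 wells and inhibition rates were averaged. The second screen retested hits as compounds dissolved from fresh powder.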

T1 sequence (P07947 2-543): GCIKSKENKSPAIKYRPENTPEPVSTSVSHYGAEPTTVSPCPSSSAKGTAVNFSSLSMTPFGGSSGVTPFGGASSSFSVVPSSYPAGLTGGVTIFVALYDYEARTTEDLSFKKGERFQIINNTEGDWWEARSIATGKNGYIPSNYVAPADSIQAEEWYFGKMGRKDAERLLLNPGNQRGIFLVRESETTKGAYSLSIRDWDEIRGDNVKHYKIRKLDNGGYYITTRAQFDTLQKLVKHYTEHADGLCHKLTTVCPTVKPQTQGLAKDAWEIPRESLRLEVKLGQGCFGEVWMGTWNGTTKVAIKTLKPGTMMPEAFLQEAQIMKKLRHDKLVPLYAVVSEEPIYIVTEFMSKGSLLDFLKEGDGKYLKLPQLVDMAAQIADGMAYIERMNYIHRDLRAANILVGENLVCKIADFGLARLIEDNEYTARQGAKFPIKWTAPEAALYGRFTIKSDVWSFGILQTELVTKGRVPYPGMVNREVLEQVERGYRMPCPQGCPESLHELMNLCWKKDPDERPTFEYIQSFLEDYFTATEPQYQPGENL

SMILES | First screening IR (inhibition rate) | Second screening IR (inhibition rate)
CCN(C1CCS(=O)(=O)C1)S(=O)(=O)c1ccc(C)c(C)c1 (stereo not drawn) [Compound Z45467115] | 10% | –
c1ccc2nc(Nc3cn[nH]c3)cnc2c1 [Compound Z729018028] | 45% | -12%
CN(CCO)c1ccc(S(C)(=O)=O)cc1S(C)(=O)=O [Compound Z199538264] | 3% | –
Cc1cc(NCc2cn3cccnc3n2)c(C(N)=O)cc1F [Compound Z1430011273] | 12% | –
O=C(C1=C(O)C(=O)N(CCCn2ccnc2)C1c1cccc([N+](=O)[O-])c1)c1ccco1 (stereo not drawn) [Compound Z57237939] | 62% | -11%
Cc1ccc(N(C(=O)c2ccc(C(C)(C)C)cc2)C2C=CS(=O)(=O)C2)cc1 (stereo not drawn) [Compound Z56970107] | 4% | –
Cc1cc(S(=O)(=O)N(C)CC(=O)N2CCC(O)CC2)cnc1Cl [Compound Z1591866613] | -1% | –
O=S(=O)(c1c(Cl)cccc1Cl)N1CCN(Cc2nc3ccccc3s2)CC1 [Compound Z45503858] | 3% | –
CCC1CCCCN1S(=O)(=O)c1ccc(S(C)(=O)=O)cc1 (stereo not drawn) [Compound Z300098278] | 51% | –
CC(=O)c1cccc(NC(=O)c2cc(-c3ccco3)nc3c2cnn3C(C)C)c1 [Compound Z216416610] | -1% | –
CC1CCN(Cc2ncc(-c3cccc(Cl)c3)o2)CC1n1ccnc1 (stereo not drawn) [Compound Z1492998619] | 33% | –
Cc1ccc(SCC(=O)OCC(=O)Nc2ccc3[nH]c(=O)[nH]c3c2)cc1C [Compound Z16616292] | -13% | –
Cc1nc(NCCn2cccn2)c2cnn(-c3ccccc3)c2n1 [Compound Z751573116] | 14% | –
CC(Sc1nnc2ccccn12)C(=O)Nc1nc(-c2ccc(Cl)c(Cl)c2)cs1 (stereo not drawn) [Compound Z20241270] | 4% | –
CCn1c(O)c(N=Nc2ccc([N+](=O)[O-])cc2S(=O)(=O)Nc2ccc(C)cc2C)c2ccccc21 [Compound Z49643067] | 44% | –
CCn1ncc2c(C(=O)N3CCN(CC(=O)Nc4cccc(C)c4C)CC3)cc(-c3ccccc3)nc21 [Compound Z224933090] | -4% | –
C=CCN(Cc1nnc(-c2ccc(Cl)cc2)o1)S(=O)(=O)c1ccc(NC(C)=O)cc1 [Compound Z26082391] | 3% | –
CC1C/C(=C/c2ccc(Cl)c([N+](=O)[O-])c2)c2nc3ccccc3c(C(=O)O)c2C1 (stereo not drawn) [Compound Z46107857] | 11% | –
Cc1cccc(N=C2NN=C(c3ccc(CCNS(C)(=O)=O)s3)CS2)c1C [Compound Z232307154] | 37% | -3%
Cc1ccc(C(=O)OCc2nc(N)nc(Nc3ccccc3)n2)s1 [Compound Z89671452] | -2% | –
C=CCn1c(COc2ccccc2F)nnc1SCCCn1c(=O)[nH]c2ccccc21 [Compound Z24188026] | -6% | –
O=C(NCC1(N2CCCCC2)CCCCC1)c1ccc(S(=O)(=O)NC2CC2)cc1 [Compound Z87649109] | -3% | –
O=C(Nc1cc(-c2cccc([N+](=O)[O-])c2)sc1C(=O)O)c1cc2c(s1)CCC2 [Compound Z204341220] | -3% | –
CC(SCc1nc(N)nc(N(C)C)n1)C(=O)Nc1ccc(F)cc1 (stereo not drawn) [Compound Z232651902] | -3% | –
COc1ccccc1NC(=O)c1ccc(NC(=O)COc2ccc(-c3ccccc3)cc2)cc1 [Compound Z19829052] | 3% | –
C/C=C/C=C/C(=O)NCc1cccc(C(=O)NCc2ccco2)c1 [Compound Z737550454] | 0% | –

SMILES | First screening IR (inhibition rate) | Second screening IR (inhibition rate)
C/C(N)=C(\C#N)C(=O)CSc1nnc(-c2ccccc2F)n1Cc1ccccc1 [Compound Z15780020] | -17% | –
COC(=O)c1cc(-c2ccc(OC)cc2)nc2c1c(C)nn2CCC#N [Compound Z328815354] | 24% | –
CC1CCCC(C)N(S(=O)(=O)CCCS(C)(=O)=O)C1 (stereo not drawn) [Compound Z1271251540] | 8% | –
N#Cc1cnc(N2CCN(S(=O)(=O)c3cc(Cl)ccc3Cl)CC2)c(Cl)c1 [Compound Z1039059796] | 0% | –
NC(=O)C1CCCN(c2nc(-c3ccncc3)nc3ccccc23)C1 (stereo not drawn) [Compound Z239623050] | 13% | –
CC(CNc1ncnc2c1cnn2CCO)Cn1cccn1 (stereo not drawn) [Compound Z990883644] | 11% | –
COc1cccc(-c2cc(-c3ccccc3)c3cc(Br)ccc3n2)c1 [Compound Z1409331244] | -16% | –
O=C(/C=C/c1ccsc1)NC(c1ccccc1)c1cccs1 (stereo not drawn) [Compound Z89582531] | 1% | –
COc1ccc(-c2noc(/C=C/c3cncc(O)c3)n2)cc1 [Compound Z1642148255] | 3% | –
Cn1ncc2c(NCC3(c4ccccc4)CC3)ncnc21 [Compound Z229243940] | -5% | –
CC(SCc1nc(N)nc(N(C)C)n1)C(=O)NC1CCCCCC1 (stereo not drawn) [Compound Z197454502] | 1% | –
Cc1ccc(NC(=O)CC2SC(=Nc3ccccc3C)N(CCCN3CCOCC3)C2=O)c([N+](=O)[O-])c1 (stereo not drawn) [Compound Z48462494] | -3% | –
O=C(O)/C(=C\c1cccc(C(F)(F)F)c1)Sc1nnc(-c2ccco2)o1 [Compound Z95207137] | -11% | –
CCOC(=O)C1=C(CN2CCN(Cc3nc4sc5c(c4c(=O)[nH]3)CCCC5)CC2)NC(=O)NC1CC (stereo not drawn) [Compound Z46405175] | 0% | –
C(=N/Nc1nc2ccccc2nc1-c1ccccc1)/c1ccc2nccnc2c1 [Compound Z969651240] | 11% | –
CCCOc1cc(/C=C2/C(=O)Nc3ccc(Cl)cc32)ccc1OC [Compound Z44304730] | 9% | –
CC(C)n1ncc2c(C(=O)Nc3ccc(F)cc3Cl)cc(-c3ccco3)nc21 [Compound Z216417110] | 21% | –
N#Cc1ccc(-c2cc(-c3ccccc3)c3cc(Br)ccc3n2)cc1 [Compound Z415722772] | -4% | –
Cc1cccn2c(NC(=O)c3cccc(S(=O)(=O)NC(C)C)c3)c(-c3ccccc3)nc12 [Compound Z225376048] | 0% | –
Cc1nc(C2CCCN(C(=O)c3cncc(-c4ccc5c(c4)CCO5)c3)C2)n[nH]1 (stereo not drawn) [Compound Z1464424071] | -4% | –
Cc1noc(C(C)NC(=O)C2CSCN2C(=O)c2ccccc2)n1 (stereo not drawn) [Compound Z954394146] | -12% | –
Cc1ccc(S(=O)(=O)N(C)S(=O)(=O)c2ccc(C#N)cc2)cc1 [Compound Z45549760] | 3% | –
Cn1ccnc1C(Nc1cnn(Cc2ccccc2)c(=O)c1Cl)c1ccccc1 (stereo not drawn) [Compound Z185383718] | 30% | –
CC(CNC(=O)c1ncncc1Br)CN1CCN(C)CC1 (stereo not drawn) [Compound Z1936607769] | -11% | –
COc1ccc(C(N)=O)c(OCc2nc3ccccc3nc2C)c1 [Compound Z26325749] | 35% | –

Reference: article PMC5607274, “An iterative compound screening contest method for identifying target protein inhibitors using the tyrosine-protein kinase Yes” (Scientific Reports, 2017)
